Measurements taken from article PMC7005646, “Overcoming resistance to anabolic SARM therapy in experimental cancer cachexia with an HDAC inhibitor” (EMBO Molecular Medicine, 2020).

How the values were obtained:
C‐26 tumor‐bearing mice [1] = experiment: Combined androgen and AR‐42 study (Study 4), C‐26 model; type: in vivo, mouse
Experimental: These studies were performed as previously described (Tseng et al, 2015a) with modifications. Tumors were established in the right flank of CD2F1 mice by subcutaneous injection of C‐26 cells (0.5 × 10^6 cells in 0.1 ml). […] TFM‐4AS‐1 (a potent experimental SARM), DHT, and vehicles were administered by subcutaneous injection.
Similar to Study 2, the tumor‐free control group was maintained at six animals, whereas 10 animals were included in each of the 6 tumor‐bearing groups. Six days after cell injection, animals with palpable tumors were treated once daily for 13 days with vehicles for AR‐42 and TFM‐4AS‐1/DHT (n = 9), AR‐42 (10 mg/kg; TFM‐4AS‐1/DHT vehicle; n = 10), TFM‐4AS‐1 (10 mg/kg; AR‐42 vehicle; n = 9), DHT (3 mg/kg; AR‐42 vehicle; n = 10), the combination of AR‐42 and TFM‐4AS‐1 (10 mg/kg each; n = 9), or the combination of AR‐42 (10 mg/kg) and DHT (3 mg/kg; n = 10). Grip strength was measured, and tissues were collected as in the previous studies.
Forelimb grip strength was measured using Bio‐GS3 Grip Strength Test Meter (Forceleader DBA Bioseb, Pinellas Park, FL). Each mouse was held by the base of its tail and lowered over the apparatus until its forepaws grasped the metal pull bar. […] The force applied to the bar at the moment of release was recorded as the peak force. […]

C‐26 tumor‐bearing mice [2] = experiment: Initial AR‐42/GTx‐024 combination study (Study 1), male C‐26 tumor‐bearing mice; type: in vivo, mouse
[3] = male rats, 0.5 mpk; ref Xenobiotica. 2013 Nov;43(11):993-1009; cited from earlier work
[4] = GTx‐024 plasma pharmacokinetics, LLC tumor‐bearing C57BL/6NHsd mice; type: in vivo, mouse
Experimental: Blood was collected by cardiac puncture into heparinized tubes (BD Microtainer, Becton, Dickinson and Company, Franklin Lakes, NJ, USA) and immediately centrifuged at room temperature for 3 min at 4,200 RCF. Plasma was removed and placed on dry ice prior to storage at −80°C until analysis. Bioanalytical analyses were conducted as previously described (Cheng et al, 2016) by Charles River Laboratories, Inc. (Wilmington, MA, USA). Non‐compartmental analysis was performed using the PKNCA package in R version 3.6.0.

[5] = system: serum‐luteinizing hormone; experiment: Serum luteinizing hormone radioimmunoassay, Study 1; type: in vivo, mouse; settings: Study 1, day 18, 15 mg/kg, C‐26 tumor‐bearing mice
Experimental: Luteinizing hormone was measured in serum by a two‐site sandwich radioimmunoassay performed by the Ligand Assay and Analysis Core at the Center for Research in Reproduction, University of Virginia School of Medicine (Charlottesville, VA). Serum was isolated by centrifugation (2,000 g, 15 min) from whole blood samples collected from mice immediately post‐mortem, and then stored at −80°C until shipment on dry ice.

C‐26 cells = experiment: Cell viability assay (CCK‐8); type: cell-based, mouse; settings: up to 10 µM, 48 hours
Experimental: Cell viability assays were conducted using the CCK‐8 kit (Dojindo Molecular Technologies, Inc; Kumamoto, Japan). Briefly, 1,250 cells per well were plated on 96‐well plates and allowed to adhere overnight.

pSTAT3 (Y705) = experiment: pSTAT3/tSTAT3 Western blot of gastrocnemius muscle; type: in vivo, mouse
Experimental: Western blots from all studies were performed on gastrocnemius muscle from representative animals lysed by Nonidet P‐40 isotonic lysis buffer [50 mM Tris–HCl, pH 7.5, 120 mM NaCl, 1% (v/v) Nonidet P‐40, 1 mM EDTA, 50 mM NaF, 40 mM glycerophosphate, and […] each of protease inhibitors (aprotinin, pepstatin, and leupeptin)]. Equivalent amounts of protein from each sample, as determined by the Bradford assay (Bio‐Rad), were resolved by SDS–PAGE and then transferred (semi‐dry) onto Immobilon nitrocellulose membranes (Millipore, Bellerica, MA). Membranes were washed twice with TBST [Tris‐buffered saline (TBS) containing 0.1% Tween‐20], blocked with 5% non‐fat milk in TBST for 1 h, and then washed an additional three times. Membranes were incubated with specific primary antibody in TBST (1:1,000) at 4°C overnight, washed three times (TBST), and then incubated with appropriate goat anti‐rabbit or anti‐mouse IgG–horseradish peroxidase‐conjugated secondary antibodies (1:5,000) at room temperature (1 h). Following additional washes (TBST), immunoblots were visualized as appropriate by ECL chemiluminescence (Amersham Biosciences, Little Chalfont, United Kingdom) or Duration HRP Chemiluminescence (Alkali Scientific, Florida, United States). Primary antibodies: phospho‐STAT3 (Tyr705) (D3A7) XP® rabbit mAb #9145, STAT3 (124H6) mouse mAb #9139 (Cell Signaling Technology, Danvers, MA); α‐tubulin (B‐7), sc‐5286 (Santa Cruz Biotechnologies, Santa Cruz, CA); androgen receptor (EP670Y), ab52615 (Abcam, Cambridge, MA) and GAPDH (6C5), sc‐32233 (Santa Cruz Biotechnologies, Santa Cruz, CA).

serum cytokines = experiment: Serum cytokine panel (multiplex), terminal samples from Study 2; type: in vivo, mouse; settings: GTx‐024 15 mg/kg, mean ± SD
Experimental: This confirmatory study was performed exactly as Study 1 with expanded animal numbers. Tumor‐free control groups were maintained at 6 animals each, whereas 10 animals were included in each of the tumor‐bearing groups. […] Grip strength was measured on study days 0 (baseline) and 16. Due to rapid model progression, this study was terminated on day 17 after only 12 days of treatment.
Serum cytokine panel analyses were performed by a commercial vendor (Eve Technologies, Calgary, Canada) as previously described (Tseng et al, 2015a). Serum interleukin‐6 (IL‐6) was measured using a commercial ELISA kit (R&D Systems, Minneapolis, MN, USA) according to the manufacturer's instructions.

LLC tumor‐bearing mice = experiment: AR‐42/GTx‐024 combination study in the LLC cachexia model (Study 5); type: in vivo, mouse
Experimental: This study was performed as previously described (Tseng et al, 2015a) with modifications. Tumors were established in the right hindlimb of male C57BL/6NHsd mice by intramuscular injection of LLC cells (0.5 × 10^6 cells in 0.05 ml). Similar to Study 3, the tumor‐free control group was maintained at six animals, whereas 12 animals were included in each of the tumor‐bearing groups. […] Grip strength, body weight, and food consumption were measured, and tissues were collected as in the previous C‐26 studies.

[6] = Study 1, male, day 18, GTx‐024 15 mg/kg, AR‐42 10 mg/kg, or both
[7] = male, C57BL/6NHsd, mouse, single 15 mg/kg oral dose, plasma
[8] = C‐26 Tumor‐bearing, AR‐42 10 mg/kg, or both

Compound: CN1C(=O)C=C[C@]2(C)[C@H]3CC[C@]4(C)[C@@H](C(=O)Nc5ccccc5C(F)(F)F)CC[C@H]4[C@@H]3CC[C@@H]12 [TFM‐4AS‐1]
- sparing of body weight or mass of gastrocnemius or quadriceps (C‐26 tumor‐bearing mice [1]; Study 4, monotherapy 10 mg/kg subcutaneous): did not spare body weight

Compound: C[C@](O)(COc1ccc(C#N)cc1)C(=O)Nc1ccc(C#N)c(C(F)(F)F)c1 [GTx‐024, (S)‐N‐(4‐cyano‐3‐(trifluoromethyl)phenyl)‐3‐(4‐cyanophenoxy)‐2‐hydroxy‐2‐methylpropanamide]
- body weight in tumor‐free controls (C‐26 tumor‐bearing mice [2]; Study 1, 15 mg/kg daily oral): did not cause body weight loss
- terminal body weight corrected for tumor mass (C‐26 tumor‐bearing mice [2]; Study 1, male, day 18, 13 days daily oral, GTx‐024 15 mg/kg, AR‐42 10 mg/kg, or both): 79.0 ± 11.2 % of tumor‐free controls
- terminal gastrocnemius mass (C‐26 tumor‐bearing mice [2]; [6]): 84 ± 11.3 % of tumor‐free controls
- terminal quadriceps mass (C‐26 tumor‐bearing mice [2]; [6]): 80.0 ± 9.1 % of tumor‐free controls
- AUCinf [3]: approximately 4.3 ug*hr/mL
- projected mouse exposure at 0.5 mpk over rat exposure at 0.5 mpk ([4]; 28.8 vs 4.3 ug*hr/mL): 6.7 fold
- exposure projected for 0.5 mg/kg ([4]; 30‐fold dose reduction from 15 mg/kg, mouse): ~ 28.8 μg*h/ml
- AUC(0-inf) [4, 7]: 863 µg·h/mL
- AUC(0-t) [4, 7]: 721 µg·h/mL
- Cmax [4, 7]: 25800 ng/mL
- half-life [4, 7]: 1090 min
- serum‐luteinizing hormone [5]: suppressed serum‐luteinizing hormone
- direct effects on C‐26 cell viability (C‐26 cells): did not detect differences in the direct effects
- pSTAT3 in gastrocnemius (pSTAT3 (Y705); female C‐26 tumor‐bearing mice, Study 3): reduced levels of pSTAT3 activation
- pSTAT3 in gastrocnemius (pSTAT3 (Y705); male C‐26 tumor‐bearing mice, Study 1): no apparent effect
- GM‐CSF, serum (serum cytokines; [8]): 17.35 ± 4.33 pg/mL
- G‐CSF, serum (serum cytokines; [8]): 2446.63 ± 1625.70 pg/mL
- IL‐6, serum (serum cytokines; [8]): 397.54 ± 341.43 pg/mL
- IL‐17, serum (serum cytokines; [8]): 1.75 ± 1.28 pg/mL
- IP‐10, serum (serum cytokines; [8]): 154.76 ± 17.98 pg/mL
- KC, serum (serum cytokines; [8]): 288.89 ± 154.46 pg/mL
- LIF, serum (serum cytokines; [8]): 45.26 ± 21.57 pg/mL
- LIX, serum (serum cytokines; [8]): 5234.39 ± 4771.34 pg/mL
- M‐CSF, serum (serum cytokines; [8]): 22.23 ± 9.45 pg/mL
- GM‐CSF, serum (serum cytokines; Tumor‐free): 13.27 ± 4.62 pg/mL
- G‐CSF, serum (serum cytokines; Tumor‐free): 338.39 ± 71.70 pg/mL
- IL‐6, serum (serum cytokines; Tumor‐free): 2.45 ± 1.31 pg/mL
- IL‐17, serum (serum cytokines; Tumor‐free): 5.01 ± 1.18 pg/mL
- IP‐10, serum (serum cytokines; Tumor‐free): 145.68 ± 48.83 pg/mL
- KC, serum (serum cytokines; Tumor‐free): 90.02 ± 17.69 pg/mL
- LIF, serum (serum cytokines; Tumor‐free): 2.50 ± 2.34 pg/mL
- LIX, serum (serum cytokines; Tumor‐free): 1316.67 ± 1662.66 pg/mL
- M‐CSF, serum (serum cytokines; Tumor‐free): 27.23 ± 10.09 pg/mL
- LLC tumor growth (LLC tumor‐bearing mice; Study 5, 15 mg/kg daily oral): stimulated LLC tumor growth
- LLC tumor growth (LLC tumor‐bearing mice; repeat of Study 5, 0.5 mg/kg daily oral): did not promote LLC tumor growth
- response of body weight and skeletal muscle mass loss (LLC tumor‐bearing mice; repeat of Study 5, 10 mg/kg AR‐42, 0.5 mg/kg GTx‐024, or both): did not respond

Compound: C[C@]12CCC(=O)C[C@@H]1CC[C@@H]1[C@@H]2CC[C@]2(C)[C@@H](O)CC[C@@H]12 [DHT, dihydrotestosterone]
- C‐26 tumor growth (C‐26 tumor‐bearing mice [1]; Study 4, DHT alone 3 mg/kg, after 8 days of administration): tumor growth was significantly suppressed
- direct effects on C‐26 cell viability (C‐26 cells): did not detect direct effects
